How the values were obtained:
MDA-MB-231 cell line = experiment: Sensitivity to doxorubicin, CCK8 assay, MDA-MB-231; assay type: cell-based, human; details: MDA-MB-231, doxorubicin 10 μM to zero, 10 hrs, no ANT2 shRNA
Method: The MDA-MB-231 cell line which has a predominant proportion of progenitor cells (CD44+/CD24−) was treated with 10-fold serial dilutions of doxorubicin, a widely used anticancer agent starting from 10 μM to zero, followed by incubation (10 hrs). The assay was conducted in the same manner as in Example 6.

[1] = test system: breast cancer cell line MCF7; experiment: Sensitivity to doxorubicin, CCK8 assay, MCF7; assay type: cell-based; details: MCF7 progenitor cells (CD44+/CD24−) vs mixed population
Method: The breast cancer cell line MCF7, which has a minor proportion of progenitor cells (CD44+/CD24−), was treated with various concentrations of doxorubicin, widely used for the treatment of breast cancer, after which apoptosis was quantitatively analyzed using a CCK8 assay.

MCF7 cells = experiment: Sensitivity to TRAIL, CCK8 assay, MCF7; assay type: cell-based
Method: (§1) As breast cancer cell lines in this experiment, MCF7 resistant to TRAIL, and MDA-MB-231 highly sensitive to TRAIL were employed. MCF7 and MDA-MB-231 were treated with TRAIL at various concentrations after which cell death was analyzed with a CCK8 reagent. The CCK8 assay is a cell viability assay. Specifically, 100 μL of a cell suspension was placed onto each well (1×10^4 cells/well). The cells were treated with 10-fold serial dilutions of TRAIL starting from 1 μg/mL to zero, followed by incubation for 12 hrs. After the addition of 10 μL of the CCK8 reagent, the cells were incubated for a proper time (4 hours) in a CO2 incubator and measured for absorbance at 450 nm to analyze cell death.
However, the introduction of ANT2 shRNA into MCF7 cells induced apoptosis (−25%). […] As for a negative control, it was PBS for TRAIL, and sc shRNA (scrambled shRNA) for ANT2 shRNA.
After being treated with TRAIL alone, ANT2 shRNA alone, and TRAIL and ANT2 shRNA in combination, MCF7 cells, resistant to TRAIL, were examined for apoptosis, and the results are shown in FIG. 24C.
Furthermore, treatment with the p53 inhibitor (pifithrin-alpha) suppressed the up-regulation of TRAIL-mediated apoptosis by ANT2 shRNA, which confirmed that the introduction of ANT2 shRNA induced the expression and activity of p53, leading to an increase in sensitivity to TRAIL. The cell death was quantified using a CCK8 assay, with the use of PBS as a negative control for the p53 inhibitor (FIG. 28).

DR4, DR5, DcR1 and DcR2 = experiment: Expression of TRAIL receptors by Western blots, MCF7; assay type: cell-based; details: MCF7, pre-treatment with p53 inhibitor
Method: The breast cancer cell lines MCF7 and MDA-MB-231, which are different in sensitivity to TRAIL from each other, were analyzed for expression levels of the receptors DR4, DR5, DcR1, and DcR2, all binding to TRAIL, by Western blots.
Upon the introduction of ANT2 shRNA, expression patterns of TRAIL receptors were examined, and the results are given in FIG. 26B. […] In T47D and BT474 cell lines, which are known to have TRAIL resistance, the same effects as in MCF7 were observed. That is, the introduction of ANT2 shRNA increased the expression of DR4 and DR5, but decreased the expression of DcR1 and DcR2 (FIG. 26C).
In addition, an experiment was performed to reconfirm that the introduction of ANT2 shRNA induces the expression and activity of p53, thus up-regulating the TRAIL receptors DR4 and DR5.

[2] = test system: breast cancer cells (MDA-MB-231); experiment: Direct apoptosis, PI and Annexin V staining, FACS; assay type: cell-based, human; details: 48 hours from transfection
Method: To investigate whether apoptosis could induced directly by ANT2 siRNA, the present inventors performed staining with propidium iodide (PI) and Annexin V.
Particularly, the cells were transfected respectively with ANT2 siRNA and scrambled siRNA, followed by culture for 24-48 hours. The cells were washed with PBS, to which PI and Annexin V were added. After reaction at room temperature for 15 minutes, […] was measured by FACS.

MDA-MB-231 cells = experiment: Sensitivity to TRAIL, CCK8 assay, MDA-MB-231; assay type: cell-based, human; details: MDA-MB-231, TRAIL at various concentrations, 12 hrs
Method: as §1

[3] = test system: breast cancer cell lines T47D and BT474; experiment: Sensitivity to TRAIL, CCK8 assay, T47D and BT474; assay type: cell-based; details: T47D and BT474, TRAIL alone
From the text: The same results as MCF7 were detected from the breast cancer cell lines T47D and BT474, both known to be resistant to TRAIL (FIG. 25A). For this, a CCK8 assay was employed to quantify the apoptosis.

[4] = test system: breast cancer cell lines T47D and BT474; experiment: Western blots of apoptosis-induced proteins (PARP, caspase-8/9/7, Bid, cytochrome C); assay type: cell-based; details: TRAIL alone
From the text: The increased sensitivity to TRAIL was reconfirmed to be attributed to the knockdown of ANT2 by shRNA. […] The empty vector pcDNA was introduced as a negative control for pcDNA-ANT2. When ANT2 shRNA increased sensitivity to TRAIL to induce apoptosis, the concurrent events of intracellular proteins (cleavage of PARP protein, cleavage of caspase-8/9/7, and truncation of Bid proteins) were detected by Western blots.
Because mitochondria play an important role in the regulation of apoptosis, cytochrome C, which is released from mitochondria to cytoplasm, was quantitatively monitored upon the ANT2 shRNA-triggered, TRAIL-mediated apoptosis. The mitochondrial protein COX IV was used as a loading control to guarantee the use of mitochondrial proteins in the same amount. No changes in the pattern of apoptosis-induced proteins were observed when TRAIL was used alone. […] These changes of intracellular protein patterns confirmed that ANT2 shRNA enhanced TRAIL-mediated apoptosis.

MCF7 tumor = experiment: In vivo tumor growth of MCF7 transplanted into nude mice; RT-PCR of TRAIL receptors in tumors; set-up: species or system Balb/c nude mice; details: TRAIL alone, 10 mg/kg intraperitoneally, three treatments over 45 days
Method: The breast cancer cell line MCF7 resistant to TRAIL was transplanted into immunedeficient Balb/c nude mice. When a tumor grew to a volume of 100 mm^3, they were treated with ANT2 shRNA and TRAIL. In this regard, TRAIL was intraperitoneally injected (10 mg/kg) while ANT2 shRNA was directly injected into the tumor (100 μg; supplemented 200 μl Lipofectamine™2000). At this time, Lipofectamine™2000 was used to deliver ANT2 shRNA into tumor cells. After three treatments over 45 days, the size of tumor was monitored. A same volume of PBS and sc shRNA was used as respective negative controls for TRAIL and […]. On 45th day, the animal models were subjected to euthanasia and the tumors were excised.

Molecule: COc1cccc2c1C(=O)c1c(O)c3c(c(O)c1C2=O)C[C@@](O)(C(=O)CO)C[C@@H]3O[C@H]1C[C@H](N)[C@H](O)[C@H](C)O1 [doxorubicin]
- sensitivity to doxorubicin (MDA-MB-231 cell line): neither progenitor cells (CD44+/CD24−) nor the non-progenitor cells were sensitive
- sensitivity to doxorubicin [1]: less sensitive

Molecule: Cc1ccc(C(=O)Cn2c3c(sc2=N)CCCC3)cc1 [pifithrin-alpha, reference compound]
- up-regulation of TRAIL-mediated apoptosis by ANT2 shRNA (MCF7 cells; MCF7, treatment with p53 inhibitor, CCK8): suppressed
- up-regulation of DR4 and DR5 by ANT2 shRNA (DR4, DR5, DcR1 and DcR2): suppressed

Molecule: ANT2 siRNA-2: ANT2 siRNA for comparison, SEQ ID NO: 14, 5′-CUGACAUCAUGUACACAGG-3′ (listed as RNA, chemistry not given here)
- apoptosis, comparison among ANT2 siRNA, ANT2 siRNA-2 and ANT2 siRNA-3 [2]: consistent

Molecule: ANT2 siRNA-3: ANT2 siRNA for comparison, SEQ ID NO: 15, 5′-GAUUGCUCGUGAUGAAGGA-3′ (listed as RNA, chemistry not given here)
- apoptosis, comparison among ANT2 siRNA, ANT2 siRNA-2 and ANT2 siRNA-3 [2]: consistent

B1: TRAIL: TRAIL/apo2 ligand, a member of tumor necrosis factor, can selectively kill cancer cells (protein, UniProt P50591 1-281, looked up)
Tumor necrosis factor ligand …: MAMMEVQGGPSLGQTCVLIVIFTVLLQSLCVAVTYVYFTNELKQMQDKYSKSGIACFLKEDDSYWDPNDEESMNSPCWQVKWQLRQLVRKMILRTSEETISTVQEKQQNISPLVRERGPQRVAAHITGTRGRSNTLSSPNSKNEKALGRKINSWESSRSGHSFLSNLHLRNGELVIHEKGFYYIYSQTYFRFQEEIKENTKNDKQMVQYIYKYTSYPDPILLMKSARNSCWSKDAEYGLYSIYQGGIFELKENDRIFVSVTNEHLIDMDHEASFFGAFLVG
- apoptosis (MCF7 cells; MCF7, TRAIL 100 ng/mL): not induced to undergo apoptosis
- TRAIL-mediated apoptosis (MCF7 cells; MCF7, TRAIL at various concentrations, 12 hrs): did not work
- TRAIL-mediated apoptosis (MDA-MB-231 cells): induced
- response to TRAIL [3]: resistant
- changes in the pattern of apoptosis-induced proteins [4]: No changes
- tumor growth (MCF7 tumor): no significant influences

From US8399426B2, “Method for treating breast cancer using adenine nucleotide translocator 2 (ANT2) siRNA or ANT2 shRNA” (Bioinfra Inc., priority 2006, dated 2013)
